Results reported in article PMC5321639, “Design and pharmacodynamics of recombinant NZ2114 histidine mutants with improved activity against methicillin-resistant Staphylococcus aureus” (AMB Express, 2017).
Converted amounts (≈) assume the structure as drawn. Where two headings read alike, the source gives them in different places. Values belong to the molecule of their own block, whether it stands above or below them. Where a SMILES comes first, the peptide text is derived from it. Bridges are numbered along the chain shown (N, C = ends).

Legend:
S. aureus ATCC43300 [1] = assay: microbe, parasite or virus in culture; format: cell-based, Staphylococcus aureus; details: for MIC: read-out: MICa (MIC of drug alone); for MICc (MIC of the most effective combination): checkerboard; for FIC: MICc/MICa
Experimental: The MIC values of four antibiotics (vancomycin, ampicillin, rifampicin and ciprofloxacin) to S. aureus ATCC43300 were tested as the MIC assay described above. The peptide solutions and antibiotics were diluted twofold with the final concentrations ranging from 1/16 to 8× MIC, and added into 96-well plates in a checkerboard fashion (White et al. [1996]). The results of combination were evaluated by calculating the fractional inhibitory concentration index (FICI) of each combination. FIC of H1, H2, H3=MIC of H1, H2, H3, respectively, in combination with antibiotic/MIC of H1, H2, H3 alone; FIC of antibiotics=MIC of antibiotic in combination with peptide/MIC of antibiotic alone; FICI = FIC of H1, H2, H3+ antibiotic, respectively. The result of interaction between two antimicrobial drugs was determined according to: FICI ≤ 0.5 refers to synergy, 0.5 < FICI ≤ 1 refers to additivity, 1 < FICI ≤ 4 refers to indifference, and FICI > 4 is defined as antagonism (Tsuji and Rybak [2006]).

[2] = conventional antibiotics; ref Pankuch and Appelbaum [2009b]; Pankuch et al. [2003]; Watanabe et al. [1997]; cited from earlier work
Description: The PAE is a very important pharmacodynamics parameter in choosing of antibiotic dosage regimens in clinical use (Pankuch and Appelbaum [2009a]).

S. aureus ATCC43300 [3] = assay: Effect of pH on activity (MIC); format: cell-based, Staphylococcus aureus; details: then MIC assay
Experimental: (§1) The peptide solutions were diluted twofold with the range of final concentrations were 0.015–32 µg/ml (0.003–7.273 µM) for purified H1, H2, H3, H6, and H8. The test strains were grown in MHB medium at 37 °C to an OD600 of 0.4 and diluted to 1 × 10^5 CFU/ml. The 10 µl peptide and 90 µl cell suspension were added into each well. All assays were performed in triplicate. The antimicrobial activity of NZ2114 and vancomycin were tested as positive controls. The plates were incubated at 37 °C for 18–24 h. MIC was defined as the lowest peptide concentration of ones at which there was no visible growth (Tian et al. [2009]).
(§2) The effect of pH, temperature, NaCl concentration and proteinase on the activity of peptides was evaluated. Peptides were diluted twofold, then adjusted to a pH range from 2.0 to 10.0 and incubated at 37 °C for 4 h. The thermal stability of purified peptides was determined after 1-h incubation of peptides at 4, 20, 40, 60, 80 and 100 °C in deionized water, respectively. Aliquots of peptides were incubated in various proteinases solutions [pepsin (pH 2.0), trypsin (pH 8.0), proteinase K (pH 7.0)] at a ratio of 1:10, w/w (proteinase: peptide) at 37 °C for 3 h. For the ion stability, peptides were incubated in 50, 100, 200, 300, 400, 500 mM sodium chloride solutions, respectively. Other methods and conditions were prepared as the MIC assay described above (Li et al. [2015]; Qu et al. [2016]).

[4] = system: S. aureus ATCC43300 (MRSA); assay: Time-kill curve assay; format: cell-based, Staphylococcus aureus; details: for time for bacterial counts to decrease to 2 log10 CFU/ml (a 99.9% reduction): start 1 × 10^5 CFU/ml, 37 °C, triplicate
Experimental: Bacterial culture (S. aureus ATCC43300) was diluted to 1 × 10^5 CFU/ml and H1, H2, and H3 were added. […] The mixture was cultivated at 250 rpm, 37 °C. The 100-µl samples were taken from each flask at 0, 2, 4, 6, 8, 12 and 24 h of incubation, and serial dilutions of samples were plated to count visible colonies. Vancomycin was tested in the same way as a positive control and the culture without antimicrobial agent as a negative control (Xiong et al. [2011]). All experiments were performed in triplicate.

S. aureus ATCC43300 [5] = assay: Effect of NaCl concentration on activity (MIC); format: cell-based, Staphylococcus aureus
Experimental: as §1, §2

S. aureus ATCC43300 [6] = assay: Postantibiotic effect (PAE); format: cell-based, Staphylococcus aureus; details: 2 h exposure at 37 °C, 1 × 10^8 CFU/ml, drug removed by 1:10^3 dilution, mean ± SD, n = 3
Experimental: After 2 h, the drug was removed by diluting 1:10^3 into the MHB and incubated at 37 °C, 250 rpm. The sample was taken to plate counting every 1 h until the bacterial cultures become turbid. The PAE was calculated by the following formula: PAE = T − C, where T is the time needed for the count of CFU in the test culture to increase 1 log10 (10-fold) above the 0 h and C is the time needed for the count of CFU in the untreated control culture to increase 1 log10 above the 0 h (Giguère et al. [2012]).

S. aureus ATCC43300 [7] = assay: Effect of temperature on activity (MIC); format: cell-based, Staphylococcus aureus; details: then MIC assay
Experimental: as §1, §2

S. aureus ATCC43300 [8] = assay: Effect of proteinases on activity (MIC); format: cell-based, Staphylococcus aureus; details: 1:10 w/w proteinase:peptide, 37 °C for 3 h, then MIC assay
Experimental: as §1, §2

- MIC (S. aureus ATCC43300 [1]; Staphylococcus aureus, ATCC43300): 0.019 µM
- MICc (MIC of the most effective combination) (S. aureus ATCC43300 [1]; in combination with H1): 0.019 µM
- MICc (MIC of the most effective combination) (S. aureus ATCC43300 [1]; in combination with H2): 0.019 µM
- MICc (MIC of the most effective combination) (S. aureus ATCC43300 [1]; in combination with H3): 0.038 µM
Molecule: CO[C@H]1/C=C/O[C@@]2(C)Oc3c(C)c(O)c4c(O)c(c(/C=N/N5CCN(C)CC5)c(O)c4c3C2=O)NC(=O)/C(C)=C\C=C\[C@H](C)[C@H](O)[C@@H](C)[C@@H](O)[C@@H](C)[C@H](OC(C)=O)[C@@H]1C [rifampicin]
- FIC (S. aureus ATCC43300 [1]; in combination with H1): 1
- FIC (S. aureus ATCC43300 [1]; in combination with H2): 1
- FIC (S. aureus ATCC43300 [1]; in combination with H3): 2

Molecule: NCC[C@H](O)C(=O)N[C@@H]1C[C@H](N)[C@@H](O[C@H]2O[C@H](CN)CC[C@H]2N)[C@H](O)[C@H]1O[C@H]1O[C@H](CO)[C@@H](O)[C@H](N)[C@H]1O [arbekacin]
- PAE [2]: 3.0 to 3.2 h

Molecule: CN(C)c1cc(NC(=O)CNC(C)(C)C)c(O)c2c1C[C@H]1C[C@H]3[C@H](N(C)C)C(O)=C(C(N)=O)C(=O)[C@@]3(O)C(O)=C1C2=O [tigecycline]
- PAE [2]: 3.2 h

Molecule: daptomycin
- PAE [2]: 2.0 h

Molecule: CC[C@H](C)[C@@H]1NC(=O)[C@H](CO)NC(=O)[C@H](CCCCN)NC(=O)[C@@H]2CSSC[C@@H](C(=O)N[C@@H](Cc3ccc(O)cc3)C(=O)O)NC(=O)[C@H](CCCCN)NC(=O)[C@@H]3CSSC[C@H](NC(=O)[C@H](CCCNC(=N)N)NC(=O)[C@H](CC(C)C)NC(=O)[C@H](CC(=O)O)NC(=O)[C@H](CC(=O)O)NC(=O)[C@H](CCC(=O)O)NC(=O)[C@H](CC(N)=O)NC(=O)[C@H](Cc4c[nH]c5ccccc45)NC(=O)[C@@H]4CCCN4C(=O)CNC(=O)[C@H](CC(N)=O)NC(=O)[C@@H](NC(=O)CNC(=O)[C@H](Cc4ccccc4)NC(=O)CN)CSSC[C@H](NC(=O)[C@H](Cc4ccc(O)cc4)NC(=O)CNC(=O)CNC(=O)[C@H](CCCCN)NC(=O)[C@H](Cc4ccc(O)cc4)NC(=O)CNC(=O)[C@H](CCCCN)NC1=O)C(=O)N[C@@H](C)C(=O)N[C@@H](CCCCN)C(=O)NCC(=O)NCC(=O)N[C@@H](Cc1ccccc1)C(=O)N[C@@H](C(C)C)C(=O)N3)C(=O)N[C@@H](CCCCN)C(=O)N[C@@H](CC(N)=O)C(=O)N[C@@H](Cc1c[nH]cn1)C(=O)N2 [H1] (H-GFGCNGPWNEDDLRCKNHCKSIKGYKGGYCAKGGFVCKCY-OH; disulfide 4-30, 15-37, 19-39; N-terminus and C-terminus assumed)
- MIC after incubation at pH2 (S. aureus ATCC43300 [3]; pH 2, 37 °C for 4 h): 0.057 μM
- MIC after incubation at pH4 (S. aureus ATCC43300 [3]; pH 4, 37 °C for 4 h): 0.057 μM
- MIC after incubation at pH6 (S. aureus ATCC43300 [3]; pH 6, 37 °C for 4 h): 0.057 μM
- MIC after incubation at pH8 (S. aureus ATCC43300 [3]; pH 8, 37 °C for 4 h): 0.057 μM
- incubation time after which regrowth occurred ([4]; 1× MIC): 8 h
- time for bacterial counts to decrease to 2 log10 CFU/ml (a 99.9% reduction) ([4]; 1× MIC): 6 h
- incubation time after which regrowth occurred ([4]; 2× MIC): 12 h
- bacterial counts at 24 h after regrowth ([4]; 2× MIC, 24 h): 3.40 log10 CFU/ml
- time for bacterial counts to decrease to 2 log10 CFU/ml (a 99.9% reduction) ([4]; 2× MIC): 1.5 h
- time for bacterial counts to decrease to 2 log10 CFU/ml (a 99.9% reduction) ([4]; 4× MIC): 1 h
- MIC in 50 mM NaCl (S. aureus ATCC43300 [5]; incubated in 50 mM sodium chloride solution): 0.057 µM (≈ 0.251 µg/mL)
- MIC in 100 mM NaCl (S. aureus ATCC43300 [5]; incubated in 100 mM sodium chloride solution): 0.057 µM (≈ 0.251 µg/mL)
- MIC in 200 mM NaCl (S. aureus ATCC43300 [5]; incubated in 200 mM sodium chloride solution): 0.057 µM (≈ 0.251 µg/mL)
- MIC in 300 mM NaCl (S. aureus ATCC43300 [5]; incubated in 300 mM sodium chloride solution): 0.057 µM (≈ 0.251 µg/mL)
- MIC in 400 mM NaCl (S. aureus ATCC43300 [5]; incubated in 400 mM sodium chloride solution): 0.057 µM (≈ 0.251 µg/mL)
- MIC in 500 mM NaCl (S. aureus ATCC43300 [5]; incubated in 500 mM sodium chloride solution): 0.057 µM (≈ 0.251 µg/mL)
- PAE (S. aureus ATCC43300 [6]; 1× MIC): 0.90 ± 0.04 h
- PAE (S. aureus ATCC43300 [6]; 2× MIC): 2.94 ± 0.07 h
- MIC after incubation at 4 °C (S. aureus ATCC43300 [7]; 1 h at 4 °C in deionized water): 0.057 µM (≈ 0.251 µg/mL)
- MIC after incubation at 20 °C (S. aureus ATCC43300 [7]; 1 h at 20 °C in deionized water): 0.057 µM (≈ 0.251 µg/mL)
- MIC after incubation at 40 °C (S. aureus ATCC43300 [7]; 1 h at 40 °C in deionized water): 0.057 µM (≈ 0.251 µg/mL)
- MIC after incubation at 60 °C (S. aureus ATCC43300 [7]; 1 h at 60 °C in deionized water): 0.057 µM (≈ 0.251 µg/mL)
- MIC after incubation at 80 °C (S. aureus ATCC43300 [7]; 1 h at 80 °C in deionized water): 0.057 µM (≈ 0.251 µg/mL)
- MICc (MIC of the most effective combination) (S. aureus ATCC43300 [1]; in combination with ampicillin): 0.014 µM
- MICc (MIC of the most effective combination) (S. aureus ATCC43300 [1]; in combination with ciprofloxacin): 0.028 µM
- MICc (MIC of the most effective combination) (S. aureus ATCC43300 [1]; in combination with rifampicin): 0.056 µM
- MICc (MIC of the most effective combination) (S. aureus ATCC43300 [1]; in combination with vancomycin): 0.056 µM
- MIC (S. aureus ATCC43300 [1]; drug alone): 0.056 µM
- MIC after Proteinase K (S. aureus ATCC43300 [8]; proteinase K (pH 7.0)): 0.057 µM (≈ 0.251 µg/mL)
- MIC after Trypsin (S. aureus ATCC43300 [8]; trypsin (pH 8.0)): 0.057 µM (≈ 0.251 µg/mL)
